Measured values: patent publication US8748426B2, “Inhibitors of diacylglycerol acyl transferase” (Piramal Enterprises Limited, priority 2009, dated 2014)

Columns and labels:
Swiss mice = assay: Fat tolerance test (ftt) in mice; assay type: in vivo; details: 3 mg/kg, p.o.; olive oil load 10 mL/kg 30 min after treatment; AUC0-4h, vehicle group as 100%
Method: Swiss mice of age 4-5 weeks and body weight between 25-30 g were selected for study. After fasting for about 16 h, the animals were divided into three groups based on plasma triglyceride level with same mean and variation. Animals were administered with either vehicle [(1% tween 80 in 0.5% carboxy methylcellulose (CMC)]) or with compounds of the present invention (3 mg/kg, p.o.). Compounds of the present invention were prepared as suspension in 0.5% carboxy methylcellulose (CMC) with 1% tween 80. Olive oil (fat) load (10 mL/kg, p.o.) was given, 30 min after the treatment. Blood samples were collected at 1, 2, 3 and 4 h after the fat (olive oil) load. Plasma was separated and triglyceride level was measured using commercially available kits (diasys, Germany). Percentage reduction in area under curve (AUC0-4h) of the test compound was calculated by taking AUC0-4h of the vehicle group as 100%.

hDGAT1 = biological target: T1, hDGAT1 (Homo sapiens, UniProt O75907); assay: In-vitro DGAT1 assay (14C oleoyl CoA, hDGAT1 microsomes from Sf9 cells); details: for inhibition at 1 µM: read-out: % Inhibition of hDGAT1; for % Inhibition of hDGAT1: at 1 μM
T1 sequence (O75907 1-488): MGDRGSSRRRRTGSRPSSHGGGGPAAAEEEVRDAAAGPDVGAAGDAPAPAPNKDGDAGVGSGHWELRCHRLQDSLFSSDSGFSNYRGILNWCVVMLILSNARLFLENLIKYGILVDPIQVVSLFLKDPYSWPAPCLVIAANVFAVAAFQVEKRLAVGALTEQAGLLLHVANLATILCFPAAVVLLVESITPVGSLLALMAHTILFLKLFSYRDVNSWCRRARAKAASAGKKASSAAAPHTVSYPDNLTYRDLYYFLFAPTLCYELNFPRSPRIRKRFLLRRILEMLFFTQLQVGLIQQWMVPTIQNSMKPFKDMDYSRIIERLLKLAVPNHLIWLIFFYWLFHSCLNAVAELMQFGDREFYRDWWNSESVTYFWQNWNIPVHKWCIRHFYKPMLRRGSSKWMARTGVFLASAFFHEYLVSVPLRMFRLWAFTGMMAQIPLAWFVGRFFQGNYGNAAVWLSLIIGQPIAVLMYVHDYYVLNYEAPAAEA

| SMILES | inhibition at 1 µM (hDGAT1) | % Reduction (Plasma triglyceride) (Swiss mice) | % Inhibition of hDGAT1 (hDGAT1) |
| --- | --- | --- | --- |
| CC(C)[C@@H](C(=O)O)N1Cc2ccc(-c3ccc(NC(=O)c4cccc(Oc5ccccc5)c4)cc3)cc2C1=O [Example 148, (S)-3-Methyl-2-(1-oxo-6-(4-(3-phenoxybenzamido)phenyl)isoindolin-2-yl)butanoic acid] | > 50% | ++ (>50% Reduction) |  |
| CC(C)[C@@H](C(=O)O)N1Cc2ccc(-c3ccc(NC(=O)c4ccc(-c5ccccc5)cc4)cc3)cc2C1=O [Example 120, (S)-2-(6-(4-Biphenyl-4-ylcarboxamidophenyl)-1-oxoisoindolin-2-yl)-3-methyl butanoic acid] |  | ++ (>50% Reduction) | ++ (>50% Inhibition) |
| CC(C)[C@@H](C(=O)O)N1Cc2ccc(-c3ccc(NC(=O)c4ccc(Oc5ccccc5)cc4)cc3)cc2C1=O [Example 150, (S)-3-Methyl-2-(1-oxo-6-(4-(4-phenoxybenzamido)phenyl)isoindolin-2-yl)butanoic acid] | > 50% | ++ (>50% Reduction) |  |
| CC(C)[C@@H](C(=O)O)N1Cc2ccc(-c3ccc(NC(=O)c4ccc(-c5ccccc5)cc4)cn3)cc2C1=O [Example 408, (S)-2-(6-(5-Biphenyl-4-ylcarboxamidopyridin-2-yl)-1-oxoisoindolin-2-yl)-3-methylbutanoic acid] |  | ++ (>50% Reduction) | ++ (>50% Inhibition) |
| CC(C)[C@@H](C(=O)O)N1Cc2ccc(-c3ccc(NC(=O)c4ccc5ccccc5c4)cn3)cc2C1=O [Example 410, (S)-2-(6-(5-(2-Naphthamido)pyridin-2-yl)-1-oxoisoindolin-2-yl)-3-methylbutanoic acid] | > 50% | ++ (>50% Reduction) |  |
| CC(C)[C@@H](C(=O)O)N1Cc2ccc(-c3ccc(NC(=S)Nc4ccc(Cl)cc4)cc3)cc2C1=O [Example 62, (S)-2-(6-(4-(3-(4-Chlorophenyl)thioureido)phenyl)-1-oxoisoindolin-2-yl)-3-methyl butanoic acid] | 10 to 50% |  |  |
| CC(C)[C@@H](C(=O)O)N1Cc2cc(-c3ccc(NC(=O)Nc4cccc(F)c4)cc3)ccc2C1=O [Example 229, (S)-2-(5-(4-(3-(3-Fluorophenyl)ureido)phenyl)-1-oxoisoindolin-2-yl)-3-methyl butanoic acid] | > 50% |  |  |
| CC(C)[C@@H](C(=O)O)N1Cc2ccc(-c3ccc(NC(=O)c4cccc(C(F)(F)F)c4F)cc3)cc2C1=O [Example 194, (S)-2-(6-(4-(2-Fluoro-3-(trifluoromethyl)benzamido)phenyl)-1-oxoisoindolin-2-yl)-3-methylbutanoic acid] | 10 to 50% |  |  |

Now from value to molecule, other results behind:

| inhibition at 1 µM (hDGAT1) | SMILES | % Reduction (Plasma triglyceride) (Swiss mice) | % Inhibition of hDGAT1 (hDGAT1) |
| --- | --- | --- | --- |
| > 50% | CCCCCc1ccc(C(=O)Nc2ccc(-c3ccc4c(c3)C(=O)N([C@H](C(=O)O)C(C)C)C4)cc2)cc1 [Example 124, (S)-3-Methyl-2-(1-oxo-6-(4-(4-pentylbenzamido)phenyl)isoindolin-2-yl)butanoic acid] | ++ (>50% Reduction) |  |
| > 50% | CC(C)[C@@H](C(=O)O)N1Cc2ccc(-c3ccc(NC(=O)c4ccc(C(C)(C)C)cc4)cc3)cc2C1=O [Example 116, (S)-2-(6-(4-(4-tert-Butylbenzamido)phenyl)-1-oxoisoindolin-2-yl)-3-methyl butanoic acid] | ++ (>50% Reduction) |  |
| > 50% | CCCCCc1ccc(C(=O)Nc2ccc(-c3ccc4c(c3)C(=O)N([C@H](C(=O)O)C(C)C)C4)nc2)cc1 [Example 406, (S)-3-Methyl-2-(1-oxo-6-(5-(4-pentylbenzamido)pyridin-2-yl)isoindolin-2-yl)butanoic acid] | ++ (>50% Reduction) |  |
| > 50% | CCCc1ccc(C(=O)Nc2ccc(-c3ccc4c(c3)C(=O)N([C@H](C(=O)O)C(C)C)C4)cc2)cc1 [Example 170, (S)-3-Methyl-2-(1-oxo-6-(4-(4-propylbenzamido)phenyl)isoindolin-2-yl)butanoic acid] | ++ (>50% Reduction) |  |
